# Reference: ChEMBL document CHEMBL1201862, “PubChem BioAssay data set” (2004)
#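 Grown in 96-well plates, cells were treated for 48 hours with each compound at five concentrations. Insufficient inhibition: endpoint recorded as highest concentration tested. At the GI50, growth is halved.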 Active and inactive are the calls of the source. Rule as the data show it: active = GI50 up to about 1.1 µM and inactive = higher.
# What was measured:
# Assay in all cases: NCI anticancer screen, dose series, 48 h
# Malme-3M = tested on: Malme-3M
# SW-620 = tested on: SW-620
# NCI-H226 = tested on: NCI-H226
# RPMI-8226 = tested on: RPMI-8226
# HOP-62 = tested on: HOP-62
# CAKI-1 = tested on: CAKI-1
# TK-10 = tested on: TK-10
# OVCAR-3 = tested on: OVCAR-3
# NCI-H460 = tested on: NCI-H460
# SN12C = tested on: SN12C
# SK-MEL-5 = tested on: SK-MEL-5
# T47D = tested on: T47D
# Hs-578T = tested on: Hs-578T
# HT-29 = tested on: HT-29
# IGROV-1 = tested on: IGROV-1
# A549 = tested on: A549
# DU-145 = tested on: DU-145
# HCC 2998 = tested on: HCC 2998
# SNB-19 = tested on: SNB-19
# OVCAR-8 = tested on: OVCAR-8
# SK-MEL-2 = tested on: SK-MEL-2
# NCI-H522 = tested on: NCI-H522
# UACC-257 = tested on: UACC-257
# MCF7 = tested on: MCF7
# HOP-92 = tested on: HOP-92
# SNB-75 = tested on: SNB-75
# NCI/ADR-RES = tested on: NCI/ADR-RES
# HCT-116 = tested on: HCT-116
# EKVX = tested on: EKVX
# A498 = tested on: A498
# OVCAR-5 = tested on: OVCAR-5
# UACC-62 = tested on: UACC-62
# UO-31 = tested on: UO-31
# SF-539 = tested on: SF-539
# BT-549 = tested on: BT-549
# KM12 = tested on: KM12
# 786-0 = tested on: 786-0
# CCRF-CEM = tested on: CCRF-CEM
# HCT-15 = tested on: HCT-15
# MDA-MB-435 = tested on: MDA-MB-435
# SR = tested on: SR
# U-251 = tested on: U-251
# SF-268 = tested on: SF-268
# MDA-MB-231 = tested on: MDA-MB-231
# PC-3 = tested on: PC-3
# SK-MEL-28 = tested on: SK-MEL-28
# RXF 393 = tested on: RXF 393
# ACHN = tested on: ACHN
# OVCAR-4 = tested on: OVCAR-4
# K562 = tested on: K562
# MDA-N = tested on: MDA-N
# MOLT-4 = tested on: MOLT-4
# SK-OV-3 = tested on: SK-OV-3
# NCI-H23 = tested on: NCI-H23
# HL-60 = tested on: HL-60
# SF-295 = tested on: SF-295
# LOX IMVI = tested on: LOX IMVI
# COLO 205 = tested on: COLO 205
# M14 = tested on: M14
smiles,measurement,setting,value
COC(=O)[C@@H]1C[C@]2(Br)c3ccccc3N(S(=O)(=O)c3ccccc3)[C@@H]2N1C(=O)OC,GI50,Malme-3M,> 100 µM (inactive)
same,GI50,SW-620,> 100 µM (inactive)
same,GI50,NCI-H226,85.7 µM (inactive)
same,GI50,RPMI-8226,93.1 µM (inactive)
same,GI50,HOP-62,> 100 µM (inactive)
same,GI50,CAKI-1,59.8 µM (inactive)
same,GI50,TK-10,> 100 µM (inactive)
same,GI50,OVCAR-3,> 100 µM (inactive)
same,GI50,NCI-H460,> 100 µM (inactive)
same,GI50,SN12C,> 100 µM (inactive)
same,GI50,SK-MEL-5,> 100 µM (inactive)
same,GI50,T47D,> 100 µM (inactive)
same,GI50,Hs-578T,83.9 µM (inactive)
same,GI50,HT-29,> 100 µM (inactive)
same,GI50,IGROV-1,> 100 µM (inactive)
same,GI50,A549,> 100 µM (inactive)
same,GI50,DU-145,43.7 µM (inactive)
same,GI50,HCC 2998,84.3 µM (inactive)
same,GI50,SNB-19,> 100 µM (inactive)
same,GI50,OVCAR-8,> 100 µM (inactive)
same,GI50,SK-MEL-2,74.5 µM (inactive)
same,GI50,NCI-H522,> 100 µM (inactive)
same,GI50,UACC-257,0.0285 µM (active)
same,GI50,MCF7,> 100 µM (inactive)
same,GI50,HOP-92,> 100 µM (inactive)
same,GI50,SNB-75,66.8 µM (inactive)
same,GI50,NCI/ADR-RES,> 100 µM (inactive)
same,GI50,HCT-116,> 100 µM (inactive)
same,GI50,EKVX,74.1 µM (inactive)
same,GI50,A498,59.2 µM (inactive)
same,GI50,OVCAR-5,51.3 µM (inactive)
same,GI50,UACC-62,62.1 µM (inactive)
same,GI50,UO-31,> 100 µM (inactive)
same,GI50,SF-539,> 100 µM (inactive)
same,GI50,BT-549,> 100 µM (inactive)
same,GI50,KM12,> 100 µM (inactive)
same,GI50,786-0,> 100 µM (inactive)
same,GI50,CCRF-CEM,> 100 µM (inactive)
same,GI50,HCT-15,67.3 µM
same,GI50,MDA-MB-435,> 100 µM (inactive)
same,GI50,SR,> 100 µM (inactive)
same,GI50,U-251,> 100 µM (inactive)
same,GI50,SF-268,> 100 µM (inactive)
same,GI50,MDA-MB-231,> 100 µM (inactive)
same,GI50,PC-3,> 100 µM (inactive)
same,GI50,SK-MEL-28,> 100 µM (inactive)
same,GI50,RXF 393,23 µM (inactive)
same,GI50,ACHN,> 100 µM (inactive)
same,GI50,OVCAR-4,73.8 µM (inactive)
same,GI50,K562,> 100 µM (inactive)
same,GI50,MDA-N,> 100 µM (inactive)
same,GI50,MOLT-4,> 100 µM (inactive)
same,GI50,SK-OV-3,> 100 µM (inactive)
same,GI50,NCI-H23,37.3 µM (inactive)
same,GI50,HL-60,> 100 µM (inactive)
C/C(=N\NC(=O)c1ccncc1)c1ccccc1Cl,GI50,Malme-3M,> 100 µM (inactive)
same,GI50,SW-620,> 100 µM (inactive)
same,GI50,NCI-H226,> 100 µM (inactive)
same,GI50,RPMI-8226,79.6 µM (inactive)
same,GI50,HOP-62,> 100 µM (inactive)
same,GI50,CAKI-1,> 100 µM (inactive)
same,GI50,SF-295,> 100 µM (inactive)
same,GI50,TK-10,> 100 µM (inactive)
same,GI50,OVCAR-3,> 100 µM (inactive)
same,GI50,NCI-H460,> 100 µM (inactive)
same,GI50,SN12C,> 100 µM (inactive)
same,GI50,SK-MEL-5,> 100 µM (inactive)
same,GI50,T47D,> 100 µM (inactive)
same,GI50,Hs-578T,> 100 µM (inactive)
same,GI50,HT-29,> 100 µM (inactive)
same,GI50,IGROV-1,> 100 µM (inactive)
same,GI50,A549,> 100 µM (inactive)
same,GI50,DU-145,> 100 µM (inactive)
same,GI50,SNB-19,> 100 µM (inactive)
same,GI50,OVCAR-8,> 100 µM (inactive)
same,GI50,SK-MEL-2,> 100 µM (inactive)
same,GI50,NCI-H522,> 100 µM (inactive)
same,GI50,UACC-257,> 100 µM (inactive)
same,GI50,MCF7,> 100 µM (inactive)
same,GI50,HOP-92,> 100 µM (inactive)
same,GI50,SNB-75,> 100 µM (inactive)
same,GI50,NCI/ADR-RES,> 100 µM (inactive)
same,GI50,HCT-116,> 100 µM (inactive)
same,GI50,EKVX,> 100 µM (inactive)
same,GI50,A498,> 100 µM (inactive)
same,GI50,OVCAR-5,> 100 µM (inactive)
same,GI50,UACC-62,> 100 µM (inactive)
same,GI50,UO-31,> 100 µM (inactive)
same,GI50,SF-539,> 100 µM (inactive)
same,GI50,BT-549,> 100 µM (inactive)
same,GI50,KM12,> 100 µM (inactive)
same,GI50,786-0,> 100 µM (inactive)
same,GI50,CCRF-CEM,> 100 µM (inactive)
same,GI50,HCT-15,> 100 µM
same,GI50,MDA-MB-435,> 100 µM (inactive)
same,GI50,LOX IMVI,> 100 µM (inactive)
same,GI50,SR,> 100 µM (inactive)
same,GI50,U-251,> 100 µM (inactive)
same,GI50,COLO 205,> 100 µM (inactive)
same,GI50,SF-268,> 100 µM (inactive)
same,GI50,MDA-MB-231,> 100 µM (inactive)
same,GI50,PC-3,> 100 µM (inactive)
same,GI50,M14,> 100 µM (inactive)
same,GI50,SK-MEL-28,> 100 µM (inactive)
same,GI50,RXF 393,> 100 µM (inactive)
same,GI50,ACHN,> 100 µM (inactive)
same,GI50,OVCAR-4,> 100 µM (inactive)
same,GI50,K562,> 100 µM (inactive)
same,GI50,MDA-N,> 100 µM (inactive)
same,GI50,MOLT-4,> 100 µM (inactive)
same,GI50,SK-OV-3,> 100 µM (inactive)
same,GI50,NCI-H23,> 100 µM (inactive)
same,GI50,HL-60,> 100 µM (inactive)
CCOP(=O)(O)CN1CCNCCN(CP(=O)(O)OCC)CCNCC1,GI50,SW-620,> 100 µM (inactive)
same,GI50,NCI-H226,> 100 µM (inactive)
same,GI50,RPMI-8226,> 100 µM (inactive)
same,GI50,HOP-62,> 100 µM (inactive)
same,GI50,CAKI-1,> 100 µM (inactive)
same,GI50,SF-295,> 100 µM (inactive)
same,GI50,TK-10,> 100 µM (inactive)
same,GI50,OVCAR-3,> 100 µM (inactive)
same,GI50,NCI-H460,> 100 µM (inactive)
same,GI50,SN12C,> 100 µM (inactive)
same,GI50,SK-MEL-5,> 100 µM (inactive)
same,GI50,T47D,> 100 µM (inactive)
same,GI50,Hs-578T,> 100 µM (inactive)
same,GI50,HT-29,61.9 µM (inactive)
same,GI50,IGROV-1,> 100 µM (inactive)
same,GI50,A549,> 100 µM (inactive)
same,GI50,DU-145,> 100 µM (inactive)
same,GI50,SNB-19,> 100 µM (inactive)
same,GI50,OVCAR-8,> 100 µM (inactive)
same,GI50,SK-MEL-2,> 100 µM (inactive)
same,GI50,NCI-H522,> 100 µM (inactive)
same,GI50,UACC-257,> 100 µM (inactive)
same,GI50,MCF7,> 100 µM (inactive)
same,GI50,HOP-92,> 100 µM (inactive)
same,GI50,SNB-75,> 100 µM (inactive)
same,GI50,NCI/ADR-RES,> 100 µM (inactive)
same,GI50,HCT-116,> 100 µM (inactive)
same,GI50,EKVX,> 100 µM (inactive)
same,GI50,A498,> 100 µM (inactive)
same,GI50,OVCAR-5,> 100 µM (inactive)
same,GI50,UACC-62,> 100 µM (inactive)
same,GI50,UO-31,35.2 µM (inactive)
same,GI50,SF-539,> 100 µM (inactive)
same,GI50,BT-549,> 100 µM (inactive)
same,GI50,KM12,> 100 µM (inactive)
same,GI50,786-0,> 100 µM (inactive)
same,GI50,CCRF-CEM,> 100 µM (inactive)
same,GI50,HCT-15,> 100 µM
same,GI50,MDA-MB-435,> 100 µM (inactive)
same,GI50,LOX IMVI,> 100 µM (inactive)
same,GI50,SR,> 10 µM (inactive)
same,GI50,U-251,> 100 µM (inactive)
same,GI50,COLO 205,91.4 µM (inactive)
same,GI50,MDA-MB-231,> 100 µM (inactive)
same,GI50,PC-3,> 100 µM (inactive)
same,GI50,SK-MEL-28,> 100 µM (inactive)
same,GI50,RXF 393,> 100 µM (inactive)
same,GI50,ACHN,> 100 µM (inactive)
same,GI50,OVCAR-4,> 100 µM (inactive)
same,GI50,K562,> 100 µM (inactive)
same,GI50,MDA-N,> 100 µM (inactive)
same,GI50,MOLT-4,> 100 µM (inactive)
same,GI50,SK-OV-3,> 100 µM (inactive)
same,GI50,HL-60,53 µM (inactive)
